Data reported in patent US12496310B2, “Compositions and methods for adoptive cell therapy” (MEMORIAL SLOAN KETTERING CANCER CENTER, priority 2017, dated 2025).

Assays:
[1] = test system: HEK293T cells expressing CPG2; assay: Prodrug treatment of HEK293T cells expressing CPG2 variants; format: cell-based, human
Method: Expression of CPG2 without a signal peptide (CPG2nosigp) was employed as a control. HEK293t cells stably transfected with CPG2 variants were exposed to P-AMS (1 μM) for 48 hours and analyzed by bright field microscopy (FIG. 9A). Cells were exposed to varying concentrations of P-AMS and cell viability was analyzed at 48 hr post treatment (FIG. 9B).

[2] = test system: Human Jurkat T cells; assay: Prodrug activation by purified recombinant CPG2, Jurkat viability; format: cell-based; conditions: Jurkat viability at 48 hours
Method: FIG. 4 provides exemplary data showing activation of P-AMS (see FIG. 2) by recombinant CPG2 expressed and purified from E. coli. (A) Human Jurkat T cells were incubated with or without P-AMS in the presence of increasing concentration of purified CPG2. […] (B) Recombinant CPG2 was exposed to various concentrations of glutamated AMS prodrug. Following incubation at 37° C. (0.5, 1, 2, and 4 hr.), the reaction was combined with Amplex® Red (converts free glutamate to a fluorescent species) and fluorescent emission was analyzed using a fluorescence multiwell plate scanner.
The CPG2-pET151 vector was transformed into BL21 star E. coli cells and induced with IPTG. Bacteria were homogenized in a French Press and purified by affinity chromatography over Ni++ beads using standard protocols. Imidazole was exchanged via PBS dialysis and protein was purified via desalting spin columns. The expressed and purified CPG2 was assayed to confirm that the active enzyme was a potent converter of glutamated prodrugs. […] Pro-AMS was activated by recombinant CPG2 in vitro. Human Jurkat T cells were incubated with or without P-AMS in the presence of increasing concentration of purified CPG2. […] (FIG. 4B) Similar enzyme kinetics will be used to assess the characteristics of the enzyme activity for each of the prodrugs similarly. […]

[3] = test system: Jurkat T cells; conditions: increasing prodrug with CPG2 supernatant, 48 hours
[4] = test system: SET2 cells; assay: SET2 viability with prodrug plus recombinant enzyme or enzyme-containing supernatant; format: cell-based; conditions: SET2, with Beta-lactamase supernatant
Method: Recombinant CPG2 protein was initially synthesized, purified (FIGS. 15A and 15B), and incubated with increasing concentrations of prodrug in a glutamate release assay (FIG. 14C). Mass spectrometry was used to determine that the glutamate moiety was released from all of the glutamate prodrugs.
Cell viability was measured by CellTitre-Glo® luminescence assay.
To determine to respective enzyme output of the Beta-lactamase constructs relative to the previous CPG2 constructs, a quantitative sandwich ELISA was used to determine the concentration (ng/mL) of purified recombinant CPG2, and a quantitative nitrocefin assay was used to determine the concentration (ng/mL) of purified recombinant Beta-lactamase (FIG. 22A). Cell viability was measured by CellTitre-Glo® luminescence in the presence of prodrug (glut-AMS or ceph-AMS) and varying concentrations of purified recombinant CPG2 or Beta-lactamase (FIG. 22B).

SMILES | activation of prodrug ([1]; HEK293T cells expressing CPG intracellularly) | cell death ([1]; stably transfected HEK293T with cell-secreted or transmembrane CPG2, 48 hr) | activation by recombinant CPG2 in vitro [2] | cell viability [3] | cell viability [4]
NS(=O)(=O)OC[C@H]1O[C@@H](n2cnc3c(NC(=O)N[C@@H](CCC(=O)O)C(=O)O)ncnc32)[C@H](O)[C@@H]1O [P-AMS, ((9-((2R,3R,4S,5R)-3,4-dihydroxy-5-((sulfamoyloxy)methyl)tetrahydrofuran-2-yl)-9H-purin-6-yl)carbamoyl)-L-glutamic acid] | not activated | significant cell death | activated | significant decrease in cell viability | 
Nc1ncnc2c1ncn2[C@@H]1O[C@H](COS(=O)(=O)NCC2=C(C(=O)O)N3C(=O)[C@@H](NC(=O)Cc4cccs4)[C@H]3SC2)[C@@H](O)[C@H]1O [ceph-AMS] |  |  |  |  | significant decrease in cell viability
